The record followed here is paper PMC11822212, “High-throughput screening identifies Aurora kinase B as a critical therapeutic target for Merkel cell carcinoma” (Nature Communications, 2025).

Where a name gives a salt, the structure may show the parent alone. Read-outs that look alike come from different tables or passages of the source.

One experiment concerns MCC13 cells (VN-MCC). The experiment is described as follows: qHTS cell viability (CellTiter-Glo, 72 h; primary and follow-up small molecule screen). The format is cell-based, human.
The subject of the next experiment is MCC26 cells (VN-MCC). Described as above. The format is cell-based, human.
In another experiment the test system is UISO cells (VN-MCC). The experiment is described as above. The class given is cell-based, human.
A further experiment deals with WAGA cells (VP-MCC). The experiment is described as above. The format is cell-based, human.
The subject of the next experiment is MKL-1 cells (VP-MCC). The description is as above. The format is cell-based, human.
The next experiment relates to MKL-2 cells (VP-MCC). Described as above. The format is cell-based, human.
Another experiment has as its system HACAT cells. The experiment is described as follows: qHTS cell viability (CellTiter-Glo, 72 h; primary screen), control cell line. The class given is cell-based, human. For orientation: qHTS replaces the single test concentration by a dilution series.
The subject of the next experiment is HEK293T cells. The experiment is described as above. The class given is cell-based, human.
Another experiment concerns NIH-3T3 cells. The description is as above. The format is cell-based, mouse.
A further experiment deals with CRL-7250 cells. The description is as above. The class given is cell-based.
Setting [1] is: area under the dose-response curve, MCC13 cells, AUC<450 = reduced viability.
The mark [2] stands for this setting: area under the dose-response curve, MCC26 cells, AUC<450 = reduced viability.
[3] abbreviates: area under the dose-response curve, UISO cells, AUC<450 = reduced viability.
[4] abbreviates: area under the dose-response curve, WAGA cells, AUC<450 = reduced viability.
Setting [5] is: area under the dose-response curve, MKL-1 cells, AUC<450 = reduced viability.
The mark [6] stands for this setting: area under the dose-response curve, MKL-2 cells, AUC<450 = reduced viability.
[7] abbreviates: area under the dose-response curve, HACAT control cells, AUC<450 = reduced viability.
Setting [8] is: area under the dose-response curve, HEK293T control cells, AUC<450 = reduced viability.
Where [9] appears, read: area under the dose-response curve, NIH3T3 control cells, AUC<450 = reduced viability.
Setting [10] is: area under the dose-response curve, CRL7250 control cells, AUC<450 = reduced viability.

In the experiment with MCC13 cells (VN-MCC), `CC(C)CN(C[C@@H](O)[C@H](Cc1ccccc1)NC(=O)O[C@H]1CO[C@H]2OCC[C@H]21)S(=O)(=O)c1ccc(N)cc1` [Darunavir] displayed an MCC13_AUC of 471.675. The MCC26_AUC with MCC26 cells (VN-MCC) is 501.486. In the experiment with UISO cells (VN-MCC), this compound yielded a UISO_AUC of 505.158. This compound also yielded a WAGA_AUC in the experiment with WAGA cells (VP-MCC) of 433.192. The MKL1_AUC in the experiment on MKL-1 cells (VP-MCC) came out at 420.268. The compound also yielded an MKL2_AUC with MKL-2 cells (VP-MCC) of 413.603. This compound returned an HACAT_AUC with HACAT cells of 465.16. The same compound displayed an HEK293T_AUC in the experiment with HEK293T cells of 472.283. In the experiment on NIH-3T3 cells, this compound displayed an NIH3T3_AUC of 481.353. The CRL7250_AUC in the experiment with CRL-7250 cells came to 469.055.
In the experiment with MCC13 cells (VN-MCC) (setting [1]), `CCCCCCCCCCCC1=C(O)C(=O)C=C(O)C1=O` [Embelin] came in with an MCC13_AUC of 489.799. Further, the “Area under the dose-response curve (AUC) MCC13 Replicate 1” value with MCC13 cells (VN-MCC) (follow-up screen, MCC13, replicate 1) is given as 496.2. Also, the “Area under the dose-response curve (AUC) MCC13 Replicate 2” value with MCC13 cells (VN-MCC) (follow-up screen, MCC13, replicate 2) is 470.6. For the same compound, the “Area under the dose-response curve (AUC) MCC13 Replicate 3” value in the experiment on MCC13 cells (VN-MCC) (follow-up screen, MCC13, replicate 3) is 448.5. Further, the MCC26_AUC in the experiment on MCC26 cells (VN-MCC) (setting [2]) is given as 492.758. Also, the “Area under the dose-response curve (AUC) MCC26 Replicate 1” value in the experiment on MCC26 cells (VN-MCC) (follow-up screen, MCC26, replicate 1) stood at 439.2. Moreover, in the experiment with MCC26 cells (VN-MCC) (follow-up screen, MCC26, replicate 2), the “Area under the dose-response curve (AUC) MCC26 Replicate 2” value was found to be 416.6. Also, in the experiment on MCC26 cells (VN-MCC) (follow-up screen, MCC26, replicate 3), the “Area under the dose-response curve (AUC) MCC26 Replicate 3” value is reported as 455.7. This compound returned a UISO_AUC in the experiment on UISO cells (VN-MCC) (setting [3]) of 474.744. Further, the “Area under the dose-response curve (AUC) UISO Replicate 1” value with UISO cells (VN-MCC) (follow-up screen, UISO, replicate 1) was 471.2. The “Area under the dose-response curve (AUC) UISO Replicate 2” value in the experiment with UISO cells (VN-MCC) (follow-up screen, UISO, replicate 2) stood at 418.0. Also, the “Area under the dose-response curve (AUC) UISO Replicate 3” value with UISO cells (VN-MCC) (follow-up screen, UISO, replicate 3) came to 438.8. The same compound returned a WAGA_AUC with WAGA cells (VP-MCC) (setting [4]) of 416.987. Further, the “Area under the dose-response curve (AUC) WAGA Replicate 1” value in the experiment with WAGA cells (VP-MCC) (follow-up screen, WAGA, replicate 1) is on record as 543.3. In addition, in the experiment with WAGA cells (VP-MCC) (follow-up screen, WAGA, replicate 2), the “Area under the dose-response curve (AUC) WAGA Replicate 2” value was determined as 384.9. The “Area under the dose-response curve (AUC) WAGA Replicate 3” value in the experiment on WAGA cells (VP-MCC) (follow-up screen, WAGA, replicate 3) came out at 441.0. In the experiment on MKL-1 cells (VP-MCC) (setting [5]), this compound gave an MKL1_AUC of 418.887. The “Area under the dose-response curve (AUC) MKL-1 Replicate 1” value with MKL-1 cells (VP-MCC) (follow-up screen, MKL-1, replicate 1) is 561.5. In the experiment on MKL-1 cells (VP-MCC) (follow-up screen, MKL-1, replicate 2), the “Area under the dose-response curve (AUC) MKL-1 Replicate 2” value is listed as 475.0. The “Area under the dose-response curve (AUC) MKL-1 Replicate 3” value with MKL-1 cells (VP-MCC) (follow-up screen, MKL-1, replicate 3) worked out at 443.8. Besides, in the experiment on MKL-2 cells (VP-MCC) (setting [6]), the MKL2_AUC worked out at 427.936. In the experiment with MKL-2 cells (VP-MCC) (follow-up screen, MKL-2, replicate 1), the “Area under the dose-response curve (AUC) MKL-2 Replicate 1” value is recorded as 476.0. Besides, in the experiment on MKL-2 cells (VP-MCC) (follow-up screen, MKL-2, replicate 2), the “Area under the dose-response curve (AUC) MKL-2 Replicate 2” value came to 454.8. The “Area under the dose-response curve (AUC) MKL-2 Replicate 3” value with MKL-2 cells (VP-MCC) (follow-up screen, MKL-2, replicate 3) stood at 454.5. In addition, the HACAT_AUC in the experiment on HACAT cells (setting [7]) is recorded as 451.959. Besides, in the experiment with HEK293T cells (setting [8]), the HEK293T_AUC was 470.759. This compound also gave an NIH3T3_AUC with NIH-3T3 cells (setting [9]) of 468.399. Further, in the experiment on CRL-7250 cells (setting [10]), the CRL7250_AUC stood at 461.338.
In the experiment with MCC13 cells (VN-MCC) (setting [1]), `CCOC(=O)[C@H](CCc1ccccc1)N[C@@H](C)C(=O)N1CCC[C@H]1C(=O)O` [Enalapril maleate] showed an MCC13_AUC of 497.832. In addition, the MCC26_AUC with MCC26 cells (VN-MCC) (setting [2]) amounted to 486.615. In the experiment on UISO cells (VN-MCC) (setting [3]), this compound registered a UISO_AUC of 510.45. This compound also displayed a WAGA_AUC with WAGA cells (VP-MCC) (setting [4]) of 389.514. In the experiment with MKL-1 cells (VP-MCC) (setting [5]), this compound displayed an MKL1_AUC of 398.754. In the experiment on MKL-2 cells (VP-MCC) (setting [6]), this compound returned an MKL2_AUC of 341.505. In the experiment with HACAT cells (setting [7]), the HACAT_AUC amounted to 461.773. Further, the HEK293T_AUC in the experiment with HEK293T cells (setting [8]) is given as 479.159. Besides, the NIH3T3_AUC with NIH-3T3 cells (setting [9]) was 481.903. The compound also returned a CRL7250_AUC with CRL-7250 cells (setting [10]) of 468.406.
Take `Cc1nc2c([nH]1)c(=O)n(C)c(=O)n2Cc1ccco1` [Furafylline]: the MCC13_AUC with MCC13 cells (VN-MCC) (setting [1]) is listed as 444.774. This compound came in with an MCC26_AUC with MCC26 cells (VN-MCC) (setting [2]) of 399.611. For the same compound, the UISO_AUC with UISO cells (VN-MCC) (setting [3]) is recorded as 447.137. The WAGA_AUC in the experiment on WAGA cells (VP-MCC) (setting [4]) is reported as 445.554. For the same compound, in the experiment on MKL-1 cells (VP-MCC) ({}), the MKL1_AUC was 414.343. This compound gave an MKL2_AUC with MKL-2 cells (VP-MCC) (setting [6]) of 443.745. In addition, in the experiment with HACAT cells (setting [7]), the HACAT_AUC came out at 476.414. The compound further returned an HEK293T_AUC in the experiment on HEK293T cells (setting [8]) of 497.799. In the experiment on NIH-3T3 cells (setting [9]), this compound displayed an NIH3T3_AUC of 485.732. In the experiment on CRL-7250 cells (setting [10]), this compound returned a CRL7250_AUC of 466.658.
In turn, `CS(=O)(=O)Oc1ccc2c(NC(N)=O)c(C(=O)c3ccc(Cl)cc3Cl)oc2c1` [Lirimilast] registered an MCC13_AUC in the experiment with MCC13 cells (VN-MCC) of 475.91. In the experiment with MCC26 cells (VN-MCC), this compound registered an MCC26_AUC of 450.578. This compound came in with a UISO_AUC in the experiment on UISO cells (VN-MCC) of 491.115. The compound further displayed a WAGA_AUC in the experiment on WAGA cells (VP-MCC) of 295.464. In the experiment on MKL-1 cells (VP-MCC), this compound registered an MKL1_AUC of 416.805. Moreover, the MKL2_AUC with MKL-2 cells (VP-MCC) worked out at 353.495. Further, the HACAT_AUC in the experiment on HACAT cells amounted to 475.167. In the experiment on HEK293T cells, this compound came in with an HEK293T_AUC of 473.552. Further, the NIH3T3_AUC in the experiment with NIH-3T3 cells is given as 472.494. The CRL7250_AUC in the experiment with CRL-7250 cells was 477.656.
